Results reported in patent US10414745B2, “Phenol derivatives to treat cancer” (FUNDACIÓN MEDINA. CENTRO DE EXCELENCIA EN INVESTIGACIÓN DE …, priority 2015, dated 2019).
Read-outs that look alike come from different tables or passages of the source.

Tests used:
[1] = test system: Cancer Stem Cells MiaPaca_2; assay: MTT assay, synergism with Gemcitabine, Cancer Stem Cells MiaPaca_2; type: cell-based; conditions: Homo sapiens, MIA PaCa-2; Cancer Stem Cells MiaPaca_2, Gemcitabine alone; read-out: IC50, dose-response curve of Gemcitabine
Method: In order to study if treatment with MDN-0090 could be used in synergism with the most common pancreatic chemotherapic drug (Gemcitabine), MTT assay was performed using tumor cell lines (MiaPaca_2 and BxPC3) and cancer stem cells (MiaPaca_2 and BxPC3). In this way different Gemcitabine concentrations (0.00025-5 μM) were used with MDN-0090 dose response curves (0.39-50 μM) and vice versa. With this assay, we observed that the activity of both compounds (Gemcitabine and MDN-0090) increased when were administered together. (Tables 14-19)

HepG2 = assay: Cytotoxicity on HepG2; type: cell-based; conditions: for activity effect on HepG2 (in words): 72 hours; for IC50: Homo sapiens, HepG2, 72 hours, read-out: IC50 Cytoxicity
pERK1/2 = assay: Western blot pERK1_2 (Ras/Raf/MEK/ERK pathway inhibition); type: cell-based; conditions: 24 hours of treatment, untreated 0.38
Description: Western blot technique was used, using an Odissey Licor equipment to read the membranes. pERK1_2 antibody was used as first antibody and as second antibody we used anti-mouse antibodies. Then, the membranes were quantified using β-actin.

MiaPaca 2 cell line = assay: ApoTox-Glo Triplex Assay (viability, citotoxicity, apoptosis); type: cell-based; conditions: Homo sapiens, MIA PaCa-2, MiaPaca_2, 72 hours of treatment
Method: The MiaPaca 2 cell line was used for further evaluation of the MDN-0089, MDN-0090, MDN-0092 and MDN-0093 activity. The ApoTox-Glo™ Triplex Assay was used to evaluate three parameters (viability, citotoxicity and apoptosis).
Viability: The live-cell protease activity is restricted to intact viable cells and is measured using a fluorogenic, cell-permeant, peptide substrate (glycylphenylalanyl-aminofluorocoumarin; GF-AFC). The substrate enters intact cells where it is cleaved by the live-cell protease activity to generate a fluorescent signal proportional to the number of living cells
Cytotoxicity: Fluorogenic cell-impermeant peptide substrate (bis-alanylalanyl-phenylalanyl-rhodamine 110; bis-AAF-R110) is used to measure dead-cell protease activity, which is released from cells that have lost membrane integrity. Because bis-AAF-R110 is not cell-permeant, essentially no signal from this substrate is generated by intact, viable cells
Apoptosis: The assay uses the Caspase-Glo® Assay Technology by providing a luminogenic caspase-3/7 substrate, which contains the tetrapeptide sequence DEVD, in a reagent optimized for caspase activity, luciferase activity and cell lysis.

MiaPaca_2 cell line = assay: CFSE assay (cell cycle inhibition, High content screening); type: cell-based; conditions: Homo sapiens, MIA PaCa-2; MiaPaca_2, 72 hours of treatment; read-out: ED50 CFSE assay
Method: To evaluate the potency of the MDN-0089, MDN-0090, MDN-0092 and MDN-0093, dye CFSE and High content screening (HCS) equipment were used. MiaPaca_2 cell line was used. Cells were seeded in 96 wells plates at 10.000 cells/well. Medium was removed and compounds and standards were added in fresh medium at different concentrations, (1 μL of compound/200 μL fresh medium). The DMSO concentration was 0.5% in all wells. After 72 hours of incubation (37° C., 5% CO2), plates were read in HCS equipment.

BxPC3 = assay: MTT assay in BxPC3 tumoral pancreatic cell line; type: cell-based; conditions: Homo sapiens, BXPC-3; 72 hours of treatment; read-out: ED50 BxPC3 (MTT assay)
Method: (§1) The activity of the compounds was detected using tumoral pancreatic cell lines (MiaPaca-2 and BxPC3). For this purpose MTT test was used. Cells were seeded at […], and treated with the compound during 72 hours.

MiaPaca_2 = assay: MTT assay in MiaPaca_2 tumoral pancreatic cell line; type: cell-based; conditions: Homo sapiens, MIA PaCa-2; 72 hours of treatment; read-out: ED50 MiaPaca_2 (MTT assay)
Method: as §1

BxPC3 tumor cell line = assay: In vivo tumorigenicity assay, BxPC3; conditions: BxPC3 cells treated with MDN-0090 at IC50 for 24 hours before inoculation into NSG mice
Method: (§2) To evaluate the effect of MDN-0090 on the tumorigenicity ability of CSC-like cells heterotopic xenografts using both BxPC3 and MIAPaca-2 tumor cell lines were established. Firstly, we treated cells with MDN-0090 at IC50 for 24 hours and after that cells were inoculated into the animals. Pancreatic cancer non-treated cells were used as control.
(§3) Tumor formation was induced by subcutaneous injection of 1.5×10^4 in vitro treated or non-treated cells/mouse in NOD scid mice gamma (NOD.Cg-Prkdcscid II2rgtm1Wjl/SzJ, NSG). Animals (n=20, 10 per group) were housed and maintained at 20° C. to 24° C., 50% humidity a light-dark cycle of 14 to 10 h with food and water ad libitum. We observed the tumor growth every two days. Tumor growth was assessed using a digital caliper and the tumor volume was calculated by the formula V=(length)^2×width×π/6.

[2] = test system: BxPC3 tumor cell line xenografts; assay: Antitumor activity in heterotopic xenografts, BxPC3; type: in vivo; conditions: BxPC3 xenograft, NSG mice, 20 mg/kg ip three times a week for 50 days
Method: (§4) To evaluate the effect of MDN-0090 on tumor growth heterotopic xenografts were used for both BxPC3 and MIAPaca-2 tumor cell lines. Tumor formation was induced by subcutaneous injection of 5×10^6 cells/mouse in female NOD scid mice gamma (NOD.Cg-Prkdcscid II2rgtm1Wjl/SzJ, NSG) of eight weeks old. Animals (n=40, 10 per group) were housed and maintained at 20° C. to 24° C., 50% humidity a light-dark cycle of 14 to 10 h with food and water ad libitum. Tumors were grown to an average volume of 100 mm^3, after which they were randomly assigned as control groups (saline) and treated with MDN-0090 (20 mg/kg, dissolved in saline) injected ip three times a week for 50 days. Tumor growth was assessed twice weekly using a digital caliper and the tumor volume was calculated by the formula V=(length)^2×width×π/6.

CSCs MiaPaca_2 = assay: MTT test on pancreatic Cancer Stem Cells MiaPaca_2; type: cell-based; conditions: Homo sapiens, MIA PaCa-2, read-out: ED50 CSCs MiaPaca_2
Description: (§5) Two established cell lines derived from two different pancreatic adenocarcinomas: BxPC3 (reference ATCC® CRL-1687), mutated for CDKN2A, MAP2K4, SMAD4 and TP53; and MIA-PaCa-2 (reference ATCC® CRL-1420), mutated for k-RAS were used. These cells lines were maintained with Dulbecco's-Modified Eagle's Medium (DMEM) (Sigma-Aldrich, St. Louis, Mo., USA) supplemented with 10% fetal bovine serum (FBS) (Gibco, Carlsbad, Calif., USA) and 1% penicillin/streptomycin (P/S) (Sigma-Aldrich) in a 75 cm^2 culture flask (B D Falcon, Franklin Lakes, N.J.) unless otherwise indicated. All cells were grown at 37° C. with 5% CO2 in a humidified incubator (Steri-Cult CO2 Incubator, Thermo Electron Corporation, Waltham, Mass., USA). Media were changed every 48-72 hours and cultured cells with a maximum of 80% confluence were passed.
(§6) For the isolation of CSCs subpopulation we used the methodology described in WO 2016/020572.
(§7) The activity of the MDN-0090 was detected using pancreatic Cancer Stem Cell lines (MiaPaca-2 and BxPC3). For this purpose MTT test was used.

CSCs BxPC3 = assay: MTT test on pancreatic Cancer Stem Cells BxPC3; type: cell-based; conditions: Homo sapiens, BXPC-3, read-out: ED50 CSCs BxPC3
Description: as §5, §6, §7

p-ERK = assay: AlphaScreen Surefire p-ERK kit assay; type: cell-based; conditions: 24 hours of treatment, read-out: Inflexion point (AlphaScreen)
Method: This effect was checked for MDN-0090 with a p-ERK kit (Perkin Elmer). Cells were seeded into 96 wells/plate at 75000 cells/well. 24 hours later the medium was removed and the compound was added with fresh medium. After 24 hours of treatment, cells were lysed. 15 μL of the lysate and 15 μL of reagents were added. After 2 hours of incubation, plate was read using an EnVision equipment to read AlphaScreen assay (AlphaScreen signal (Luminiscent/fluorescent). See table 11 and FIG. 2.

[3] = test system: MIAPaca-2 tumor cell line xenografts; assay: Antitumor activity in heterotopic xenografts, MIAPaca-2; type: in vivo; conditions: MIAPaca-2 xenograft, NSG mice, 20 mg/kg ip three times a week for 50 days
Method: as §4

[4] = test system: MIAPaca-2 tumor cell line; assay: In vivo tumorigenicity assay, MIAPaca-2; conditions: MIAPaca-2 cells treated with MDN-0090 at IC50 for 24 hours before inoculation into NSG mice
Method: as §2, §3

BxPC3 CSCs xenografts = assay: Antitumor activity against CSCs induced tumors; type: in vivo; conditions: BxPC3 CSCs xenograft, NSG mice, 10 mg/kg or 20 mg/kg ip three times a week for 52 days
Method: We evaluated the effect of MDN-0090 on CSCs induced tumors. We isolated and characterized the pancreatic CSCs from BxPC3 cell line using the methodology described previously (WO 2016/020572).
In vivo experiment was performed in male and female NOD scid gamma mice (NSG, NOD.Cg-Prkdcscid II2rgtm1Wjl/SzJ). All animals (n=10 per group) were maintained in a microventilated cage system with a 12-h light/dark cycle, and were manipulated in a laminar air-flow cabinet to keep on the specific pathogen-free conditions.
For the induction of xenografts tumors, mice were anesthetized by inhalation of isofluorane, inoculated with 5×10^4 BxPC3 CSCs by subcutaneously injections into the flank regions. Tumors were grown to an average volume of 100 mm^3, after which they were randomly assigned as control groups (saline) and treatment A with MDN-0090 (10 mg/kg, dissolved in saline) and treatment B (20 mg/kg, dissolved in saline) ip three times a week for 52 days. Tumor growth was assessed twice weekly using a digital caliper and the tumor volume was calculated by the formula V=(length)^2×width×π/6.

[5] = read-out: ED50 Apoptosis (Caspase3_7)

SMILES | EC50 (MiaPaca_2 cell line) [µM] | EC50 (BxPC3) [µM] | EC50 (MiaPaca_2) [µM] | activity effect on HepG2 (in words) (HepG2) | IC50 (HepG2) [µM] | pERK1_2 (Fluorescence pERK1/2/fluorescence β-actine) (pERK1/2) | EC50 (MiaPaca 2 cell line; [5]) [µM] | EC50 (MiaPaca 2 cell line; read-out: ED50 Citotoxicity) [µM] | EC50 (MiaPaca 2 cell line; read-out: ED50 Viability) [µM] | further results
Nc1ccn([C@@H]2O[C@H](CO)[C@@H](O)C2(F)F)c(=O)n1 [Gemcitabine] | – | – | – | – | – | – | – | – | – | IC50 [1]: 1.9 µM
Cc1cc(O)c(C(=O)c2c(C=O)c(O)cc3c2C(=O)CC(C)(C)O3)c(O)c1 [MDN-0089] | 3.33 | 7.63 | 20.3 | medium activity effect | 13.6 | 0.22 | 29.7 | > 50 | > 50 | –
CC(C)=CCc1c(O)cc(O)c(C=O)c1C(=O)c1c(O)cc(C)cc1O [MDN-0090, 2,3′,5′,6-tetrahydroxy-2′-formyl-6′-(3-methyl-2-butenyl)-4-methyl-benzophenone] | 5.27 | 4.67 | 8.84 | medium activity effect | 19.7 | 0.18 | 24.9 | > 50 | 17.3 | tumor formation (BxPC3 tumor cell line): reduces tumor formation; tumor size (tumor volume) [2]: reduces the size of tumors; EC50 (CSCs MiaPaca_2; 12 hours): 20.8 µM; EC50 (CSCs MiaPaca_2; 24 hours): 14 µM; EC50 (CSCs MiaPaca_2; 48 hours): 19.6 µM; EC50 (CSCs MiaPaca_2; 72 hours): 2.18 µM; EC50 (CSCs BxPC3; 12 hours): 14.3 µM; EC50 (CSCs BxPC3; 24 hours): 17 µM; EC50 (CSCs BxPC3; 48 hours): 14 µM; EC50 (CSCs BxPC3; 72 hours): 10.3 µM; IC50 (p-ERK; 24 h): 9.02 µM; IC50 (p-ERK): 6.12 µM; tumor size (tumor volume) [3]: reduces the size of tumors; tumor formation [4]: reduces tumor formation; tumor size (tumor volume) (BxPC3 CSCs xenografts): decreased the size tumor

The next lines start with results.

EC50 (MiaPaca_2 cell line) [µM] | EC50 (BxPC3) [µM] | EC50 (MiaPaca_2) [µM] | SMILES | activity effect on HepG2 (in words) (HepG2) | IC50 (HepG2) [µM] | pERK1_2 (Fluorescence pERK1/2/fluorescence β-actine) (pERK1/2) | EC50 (MiaPaca 2 cell line; [5]) [µM] | EC50 (MiaPaca 2 cell line; read-out: ED50 Citotoxicity) [µM] | EC50 (MiaPaca 2 cell line; read-out: ED50 Viability) [µM] | further results
– | > 50 | > 50 | Cc1cc(O)c(C(=O)c2c(C=O)c(O)cc3c2C=CC(C)(C)O3)c(O)c1 [MDN-0091] | – | – | – | – | – | – | –
22.9 | 9.14 | 7.18 | COc1cc(O)c(C=O)c(C(=O)c2c(O)cc(C)cc2O)c1CC=C(C)C [MDN-0092] | medium activity effect | 20.4 | 0.29 | > 50 | > 50 | > 50 | –
< 3.15 | 8.7 | 6.47 | COc1cc(O)c(C=O)c(C(=O)c2c(O)cc(C)c(Cl)c2O)c1CC=C(C)C [MDN-0093] | high activity effect | 8.9 | 0.12 | 18.4 | > 50 | 14.5 | –
– | > 50 | > 50 | COc1cc(O)c2oc3cc(C)cc(O)c3c(=O)c2c1CC=C(C)C [MDN-0094] | – | – | – | – | – | – | –
